The results in this text go back to patent US20260285879A1, “CDK INHIBITOR AND CRYSTAL FORM OF PHARMACEUTICALLY ACCEPTABLE SALT THEREOF, AND USE THEREOF” (priority 2023, published 2026).

Series [1] is described as follows: Anhydrous crystalline form transformation test. It is filed as physicochemical. The settings on record: mixed sample of equal amounts of crystalline form A-I and A-IV.
The next series relates to A2780. Put plainly: In vitro tumor cell proliferation inhibition (CTG test). The series is classed as cell-based, human. The settings on record: ovarian cancer cells A2780. As to the method: (§1) The tumor cell strains were cultured in an incubator at 37° C. with 5% CO2. The cells were sub-cultured regularly, and those in the logarithmic growth phase were taken for plating. The cells were stained with trypan blue and the viable cells were counted. The cell concentration was adjusted to an appropriate level. The cell suspension was added to each well of the culture plate, and the culture medium without cells was added to the blank control wells. The culture plate was incubated overnight in an incubator at 37° C., 5% CO2, and 100% RH. […] The compound working solution was added to the cell culture plate, and DMSO at the same final concentration was added to the solvent control wells. Then the plate was returned to the incubator for 4-7 days of culture. The cell viability was detected according to the instructions of the Promega CellTiter-Glo (CTG) Luminescent Cell Viability Assay Kit (Promega-G7573).
(§2) The inhibition rate (IR) of the test compound was calculated using the following equation: […]
(§3) The inhibition rates of the compound at different concentrations were calculated in Excel, then the inhibition curve was plotted using GraphPad Prism software and relevant parameters, including the minimum inhibition rate, maximum inhibition rate, and IC50 were calculated. The IC50 was calculated using the following equation:
(§4) [formula] • X: log (concentration) • Y: response value, negatively correlated with X • HillSlope: slope factor

The test system of another series is COLO205. The series is described as above. It is filed as cell-based, human. The settings on record: Rb+ colorectal cancer cells COLO205. As to the method: as §1, §2, §3, §4
The subject of another series is HCT116. Described as above. The note with it: Rb+ colorectal cancer cells HCT116. The series is classed as cell-based, human. How it is done:
as §1, §2, §3, §4

In the next series the test system is HT-29. The series is described as above. The series is classed as cell-based, human. The settings on record: Rb+ colorectal cancer cells HT-29. As to the method:
as §1, §2, §3, §4

A further series relates to Hep3B(Rb−). The series is described as above. The settings on record: Hep3B(Rb−) liver cancer cells. It is filed as cell-based, human. As to the method: as §1, §2, §3, §4
For another series, the system named is Huh-7. The description is as above. It is filed as cell-based, human. The settings on record: Rb+ liver cancer cells Huh-7. How it is done: as §1, §2, §3, §4
The next series relates to JHH-7. Described as above. The series is classed as cell-based, human. The settings on record: Rb+ liver cancer cells JHH-7. As to the method: as §1, §2, §3, §4
The subject of the next series is MDA-MB-453. The description is as above. It is filed as cell-based, human. The settings on record: 4-7 days. As to the method:
as §1, §2, §3, §4

In a further series the test system is MDA-MB-468 (Rb−). The description is as above. It is filed as cell-based, human. The note with it: 4-7 days. How it is done:
as §1, §2, §3, §4

Another series has as its system MOLM-13. The series is described as above. It is filed as cell-based, human. The settings on record: hematological tumor cells MOLM-13. How it is done:
as §1, §2, §3, §4

A further series concerns MV-4-11. Described as above. It is filed as cell-based, human. The note with it: hematological tumor cells MV-4-11. As to the method:
as §1, §2, §3, §4

The subject of the next series is NCI-H211. Described as above. The note with it: small cell lung cancer cells NCI-H211. It is filed as cell-based, human. As to the method: as §1, §2, §3, §4
The next series deals with SK-MEL-5. The series is described as above. The series is classed as cell-based, human. The note with it: melanoma SK-MEL-5. How it is done: as §1, §2, §3, §4

`CC(=O)c1c(C)c2cnc(Nc3ccc4c(c3)OC[C@@H]3CN(C5CCN(C)CC5)CCN43)nc2n(C2CCCC2)c1=O` [Compound A]: the “Experimental results (crystalline form by XRPD)” value is listed as “form A-I” in [1] (n-Butanol/Anisole (v:v = 1:1), 25° C.); “form A-I” in series [1] (n-Butanol/Anisole (v:v = 1:1), 37° C.); “form A-I” in series [1] (suspension in n-Butanol, 25° C.); “form A-I” in series [1] (suspension in n-Butanol, 37° C.). Moreover, the inhibitory activity entry in the series on A2780, with COLO205, in the series with HCT116, with HT-29, with Huh-7 and in the series with JHH-7 was “good inhibitory activity” each time. Besides, the inhibitory activity result with MOLM-13, in the series with MV-4-11, with NCI-H211 and in the series on SK-MEL-5 was “good inhibitory activity” each time. Further, the inhibitory effect entry with Hep3B(Rb−) is listed as “significant inhibitory effect”. For the same compound, the maximum inhibition rate entry in the series with Hep3B(Rb−) is “exceeding 99%”. The entries for the “Maximum Inhibition Rate (%)” value in the series with MDA-MB-453 and with MDA-MB-468 (Rb−) were ~100% and “exceeding 99%”, respectively.
